Reference: patent US10246457B2, “Indazole and azaindazole Btk inhibitors” (MERCK SHARP & DOHME CORP., priority 2015, dated 2019)

Key:
[1] = target: 25P Btk enzyme (un-activated full-length Btk) (Homo sapiens (Human), UniProt Q06187); assay: 25P Btk Enzyme Activity Assay (LANCE TR-FRET); assay type: biochemical; conditions: un-activated Btk (25P), 25 μM ATP, 60 minute compound and enzyme incubation; read-out: Btk binding IC50 (nM) with 25 P
Experimental: Preparation of Un-Activated Btk Enzyme (25P Btk)
Un-activated full-length Btk recombinant protein was purified from baculovirus-transfected Sf21 cells. […] This protein represents the un-activated state of the Btk enzyme.
25P Btk Enzyme Activity Assay
Btk enzymatic activity was determined with the LANCE (Lanthanide Chelate Excite) TR-FRET (lime-resolved fluorescence resonance energy transfer) assay. […] To each well of a black non-binding surface Corning 384-well microplate (Corning Catalog #3820), 5 nL of compound (2000 fold dilution in final assay volume of 10 μL) was dispensed, followed by the addition of 7.5 μL of 1× kinase buffer (50 mM Hepes 7.5, 10 mM MgCl2, 0.01% Brij-35, 1 mM EGTA, 0.05% BSA and 1 mM DTT) containing 26.67 pg/μL (266.7 pM) of 25P Btk enzyme (recombinant protein from baculovirus-transfected Sf9 cells: full-length Btk; MW=79378 Da). Following a 60 minute compound and enzyme incubation, each reaction was initiated by the addition of 2.5 μL 1× kinase buffer containing 8 μM biotinylated “A5” peptide (Biotin-EQEDEPEGDYFEWLE-NH2), and 100 μM ATP. The final reaction in each well of 10 consists of 200 pM 25P Btk, 2 μM biotin-A5-peptide, and 25 μM ATP. Phosphorylation reactions were allowed to proceed for 120 minutes. Reactions were immediately quenched by the addition of 20 uL of 1× quench buffer (15 mM EDTA, 25 mM Hepes 7.3, and 0.1% Triton X-100) containing detection reagents (0.626 nM of LANCE-Eu-W1024-anti-phosphoTyrosine antibody, PerkinElmer and 86.8 nM of Streptavidin-conjugated Dylight 650, Dyomics/ThermoFisher Scientific). After 60 minutes incubation with detection reagents, reaction plates were read on a PerkinElmer EnVision plate reader using standard TR-FRET protocol. Briefly, excitation of donor molecules (Eu-chelate:anti-phospho-antibody) with a laser light source at 337 nm produces energy that can be transferred to Dylight-650 acceptor molecules if this donor:acceptor pair is within close proximity. Fluorescence intensity at both 665 nm (acceptor) and 615 nm (donor) are measured and a TR-FRET ratio calculated for each well (acceptor intensity/donor intensity). IC50 values were determined by 4 parameter robust fit of TR-FRET ratio values vs. (Log10) compound concentrations.

[2] = target: 100P Btk enzyme (activated full-length Btk) (Homo sapiens (Human), UniProt Q06187); assay: 100P Btk Enzyme Activity Assay (LANCE TR-FRET); assay type: biochemical; conditions: activated Btk (100P), 25 μM ATP, 60 minute compound and enzyme incubation; top concentration 1000 nM; read-out: Btk binding IC50 (nM) with 100 P
Experimental: Activated full-length Btk recombinant enzyme was expressed and purified in the same manner as the […] enzyme, except an auto-phosphorylation step was added to the purification scheme. […] This protein represents the activated state of the Btk enzyme. […] Btk Enzyme Activity Assay Btk enzymatic activity was determined with the LANCE (Lanthanide Chelate Excite) TR-FRET (lime-resolved fluorescence resonance energy transfer) assay. […] MW=79378 Da). […] Phosphorylation reactions were allowed to proceed for 45 minutes. […] After 60 minutes incubation with detection reagents, reaction plates were read on a PerkinElmer EnVision plate reader using standard TR-FRET protocol. Briefly, excitation of donor molecules (Eu-chelate:anti-phospho-antibody) with a laser light source at 337 nm produces energy that can be transferred to Dylight-650 acceptor molecules if this donor:acceptor pair is within close proximity. Fluorescence intensity at both 665 nm (acceptor) and 615 nm (donor) are measured and a TR-FRET ratio calculated for each well (acceptor intensity/donor intensity). […] (Log10) compound concentrations.

Sequence of 100P Btk enzyme (activated full-length Btk) (Q06187 whole entry): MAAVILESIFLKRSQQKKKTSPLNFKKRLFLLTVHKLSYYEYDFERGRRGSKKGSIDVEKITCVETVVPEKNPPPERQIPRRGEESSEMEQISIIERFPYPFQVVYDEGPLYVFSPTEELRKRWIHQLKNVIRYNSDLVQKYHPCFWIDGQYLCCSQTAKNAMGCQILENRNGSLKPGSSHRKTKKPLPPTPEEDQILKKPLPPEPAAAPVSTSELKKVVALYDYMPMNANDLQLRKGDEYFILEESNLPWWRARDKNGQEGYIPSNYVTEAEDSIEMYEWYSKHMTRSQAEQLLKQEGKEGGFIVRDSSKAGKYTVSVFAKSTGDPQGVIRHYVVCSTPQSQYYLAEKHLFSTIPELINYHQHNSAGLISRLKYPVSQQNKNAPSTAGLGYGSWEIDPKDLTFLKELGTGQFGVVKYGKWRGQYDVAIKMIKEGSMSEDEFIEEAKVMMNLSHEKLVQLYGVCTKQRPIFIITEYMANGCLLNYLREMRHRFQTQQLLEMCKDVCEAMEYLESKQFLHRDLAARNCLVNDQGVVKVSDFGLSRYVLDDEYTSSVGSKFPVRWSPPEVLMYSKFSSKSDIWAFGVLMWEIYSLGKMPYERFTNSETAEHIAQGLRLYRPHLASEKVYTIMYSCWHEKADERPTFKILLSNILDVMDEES
Sequence of 25P Btk enzyme (un-activated full-length Btk) (Q06187 whole entry): as above

An IC50 [1] of 173 nM was found for `CC(C)(C)c1cc(F)c2c(=O)n(-c3cccc(-c4cc(C(=O)N5CCOCC5)c5[nH]nc(N)c5c4)c3CO)ncc2c1` [Example 14, 2-{3-[3-amino-7-(morpholin-4-ylcarbonyl)-1H-indazol-5-yl]-2-(hydroxymethyl)phenyl}-6-tert-butyl-8-fluorophthalazin-1(2H)-one] in this work.
An IC50 [2] of 3.8 nM and an IC50 [1] of 0.15 nM were found for `CC(C)n1cc(-c2cc(-c3cccc(-n4ncc5cc(C(C)(C)C)cc(F)c5c4=O)c3CO)cc3c(N)n[nH]c23)cn1` [Example 6, 2-[3-{3-amino-7-[1-(1-methylethyl)-1H-pyrazol-4-yl]-1H-indazol-5-yl}-2-(hydroxymethyl)phenyl]-6-tert-butyl-8-fluorophthalazin-1(2H)-one] in this work.
An IC50 [2] of 299 nM and an IC50 [1] of 0.8 nM were found for `CC(C)(C)c1cc(F)c2c(=O)n(-c3cccc(-c4cc(-c5cccnc5)c5[nH]nc(N)c5c4)c3CO)ncc2c1` [Example 10, 2-[3-(3-amino-7-pyridin-3-yl-1H-indazol-5-yl)-2-(hydroxymethyl)phenyl]-6-tert-butyl-8-fluorophthalazin-1(2H)-one] in this work.
An IC50 [2] of 13 nM and an IC50 [1] of 0.16 nM were found for `CC(C)n1ccc(-c2cc(-c3cccc(-n4ncc5cc(C(C)(C)C)cc(F)c5c4=O)c3CO)cc3c(N)n[nH]c23)n1` [Example 17, 2-[3-{3-amino-7-[1(1-methylethyl)-1H-pyrazol-3-yl]-1H-indazol-5-yl}-2-(hydroxymethyl)phenyl]-6-tert-butyl-8-fluorophthalazin-1(2H)-one] in this work.
An IC50 [2] of 112 nM and an IC50 [1] of 0.14 nM were found for `CC(C)(C)c1cc(F)c2c(=O)n(-c3cccc(-c4cc(C(=O)O)c5[nH]nc(N)c5c4)c3CO)ncc2c1` [Example 1, 3-amino-5-[3-(6-tert-butyl-8-fluoro-1-oxophthalazin-2(1H)-yl)-2-(hydroxymethyl)phenyl]-1H-indazole-7-carboxylic acid] in this work.
An IC50 [2] of 145 nM and an IC50 [1] of 0.49 nM were found for `CC(C)(C)c1cc(F)c2c(c1)CCN(c1cccc(-c3cc(C(N)=O)c4[nH]nc(N)c4c3)c1CO)C2=O` [Example 16, 3-amino-5-[3-(6-tert-butyl-8-fluoro-1-oxo-3,4-dihydroisoquinolin-2(1H)-yl)-2-(hydroxymethyl)phenyl]-1H-indazole-7-carboxamide] in this work.
An IC50 [2] of 31.5 nM and an IC50 [1] of 0.28 nM were found for `CC(C)(C)c1cc(F)c2c(=O)n(-c3cccc(-c4cc(-c5cnn(C(C)(C)C(=O)O)c5)c5[nH]nc(N)c5c4)c3CO)ncc2c1` [Example 24, 2-(4-(3-amino-5-(3-(6-(tert-butyl)-8-fluoro-1-oxophthalazin-2(1H)-yl)-2-(hydroxymethyl)phenyl)-1H-indazol-7-yl)-1H-pyrazol-1-yl)-2-methylpropanoic acid] in this work.
An IC50 [2] of 2.6 nM and an IC50 [1] of 0.18 nM were found for `CC(C)(C)c1cc(F)c2c(=O)n(-c3cccc(-c4cc(-c5cnn(C6CCOCC6)c5)c5[nH]nc(N)c5c4)c3CO)ncc2c1` [Example 25, 2-(3-(3-amino-7-(1-(tetrahydro-2H-pyran-4-yl)-1H-pyrazol-4-yl)-1H-indazol-5-yl)-2-(hydroxymethyl)phenyl)-6-(tert-butyl)-8-fluorophthalazin-1(2H)-one] in this work.
An IC50 [2] of 11.6 nM and an IC50 [1] of 0.13 nM were found for `Cn1cc(-c2cc(-c3cccc(NC(=O)c4cc5c(s4)CCCC5)c3CO)cc3c(N)n[nH]c23)cn1` [Example 18, N-{3-[3-amino-7-(1-methyl-1H-pyrazol-4-yl)-1H-indazol-5-yl]-2-(hydroxymethyl)phenyl}-4,5,6,7-tetrahydro-1-benzothiophene-2-carboxamide] in this work.
An IC50 [1] of 7.7 nM was found for `CC(C)(C)c1cc(F)c2c(=O)n(-c3cccc(-c4ccc5[nH]nc(N)c5n4)c3CO)ncc2c1` [Example 20, 2-[3-(3-amino-1H-pyrazolo[4,3-b]pyridin-5-yl)-2-(hydroxymethyl)phenyl]-6-tert-butyl-8-fluorophthalazin-1(2H)-one] in this work.
An IC50 [1] of 64.5 nM was found for `Cc1c(NC(=O)c2ccc(C(C)(C)C)cc2F)cccc1-c1cc(C(N)=O)c2[nH]nc(N)c2c1` [Example 7, 3-amino-5-(3-{[(4-tert-butyl-2-fluorophenyl)carbonyl]amino}-2-methylphenyl)-1H-indazole-7-carboxamide] in this work.
An IC50 [2] of 16 nM and an IC50 [1] of 0.16 nM were found for `CC(C)(C)c1cc(F)c2c(=O)n(-c3cccc(-c4cc(C(N)=O)c5[nH]nc(N)c5c4)c3CO)ncc2c1` [Example 3, 3-amino-5-[3-(6-tert-butyl-8-fluoro-1-oxophthalazin-2(1H)-yl)-2-(hydroxymethyl)phenyl]-1H-indazole-7-carboxamide] in this work.
An IC50 [2] of 360 nM and an IC50 [1] of 1.7 nM were found for `CC(C)(C)c1cc(F)c2c(=O)n(-c3cccc(-c4cc(-c5cnn6c5CCCC6)c5[nH]nc(N)c5c4)c3CO)ncc2c1` [Example 28, 2-(3-(3-amino-7-(4,5,6,7-tetrahydropyrazolo[1,5-a]pyridin-3-yl)-1H-indazol-5-yl)-2-(hydroxymethyl)phenyl)-6-(tert-butyl)-8-fluorophthalazin-1(2H)-one] in this work.
An IC50 [1] of 38.6 nM was found for `CC(C)(C)c1cc(F)c2c(=O)n(-c3cccc(-c4cc(C(F)(F)F)c5[nH]nc(N)c5c4)c3CO)ncc2c1` [Example 4, 2-{3-[3-amino-7-(trifluoromethyl)-1H-indazol-5-yl]-2-(hydroxymethyl)phenyl}-6-tert-butyl-8-fluorophthalazin-1(2H)-one] in this work.
An IC50 [1] of 47.3 nM was found for `Cn1nc(N)c2cc(-c3cccc(-n4ncc5cc(C(C)(C)C)cc(F)c5c4=O)c3CO)cc(C(N)=O)c21` [Example 5, 3-amino-5-[3-(6-tert-butyl-8-fluoro-1-oxophthalazin-2 (1H)-yl)-2-(hydroxymethyl)phenyl]-1-methyl-1H-indazole-7-carboxamide] in this work.
An IC50 [2] of 5.3 nM and an IC50 [1] of 0.096 nM were found for `COCCn1cc(-c2cc(-c3cccc(-n4ncc5cc(C(C)(C)C)cc(F)c5c4=O)c3CO)cc3c(N)n[nH]c23)cn1` [Example 26, 2-(3-(3-amino-7-(1-(2-methoxyethyl)-1H-pyrazol-4-yl)-1H-indazol-5-yl)-2-(hydroxymethyl)phenyl)-6-(tert-butyl)-8-fluorophthalazin-1(2H)-one] in this work.
An IC50 [2] of 5.3 nM and an IC50 [1] of 0.073 nM were found for `Cn1cc(-c2cc(-c3cccc(-n4ncc5cc(C(C)(C)C)cc(F)c5c4=O)c3CO)cc3c(N)n[nH]c23)cn1` [Example 9, 2-{3-[3-amino-7-(1-methyl-1H-pyrazol-4-yl)-1H-indazol-5-yl]-2-(hydroxymethyl)phenyl}-6-tert-butyl-8-fluorophthalazin-1(2H)-one] in this work.
An IC50 [2] of 20 nM and an IC50 [1] of 0.18 nM were found for `CC(C)(C)c1cc(F)c2c(=O)n(-c3cccc(-c4cc(-c5cnn(CC(=O)O)c5)c5[nH]nc(N)c5c4)c3CO)ncc2c1` [Example 23, 2-(4-(3-amino-5-(3-(6-(tert-butyl)-8-fluoro-1-oxophthalazin-2(1H)-yl)-2-(hydroxymethyl)phenyl)-1H-indazol-7-yl)-1H-pyrazol-1-yl)acetic acid] in this work.
An IC50 [1] of 268 nM was found for `Cc1c(NC(=O)c2ccc(C(C)(C)C(F)(F)F)cc2F)cccc1-c1cc(C(N)=O)c2[nH]nc(N)c2c1` [Example 8, 3-amino-5-[3-({[2-fluoro-4-(2,2,2-trifluoro-1,1-dimethylethyl)phenyl]carbonyl}amino)-2-methylphenyl]-1H-indazole-7-carboxamide] in this work.
An IC50 [1] of 29.6 nM was found for `CC(C)(C)c1cc(F)c2c(=O)n(-c3cccc(-c4ccc5c(c4)c(N)nn5Cc4ccncc4)c3CO)ncc2c1` [Example 12, 2-{3-[3-amino-1-(pyridin-4-ylmethyl)-1H-indazol-5-yl]-2-(hydroxymethyl)phenyl}-6-tert-butyl-8-fluorophthalazin-1(2H)-one] in this work.
An IC50 [1] of 16.7 nM was found for `Cc1c(NC(=O)c2ccc(C(C)(C)C)cc2)cccc1-c1cc(-c2cnn(C)c2)c2[nH]nc(N)c2c1` [Example 13, N-{3-[3-amino-7-(1-methyl-1H-pyrazol-4-yl)-1H-indazol-5-yl]-2-methylphenyl}-4-tert-butylbenzamide] in this work.
